From PubChem BioAssay (NCI)
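These data come from cells grown in 96-well plates and exposed to compound for 48 hours at five concentrations. GI50 marks 50% less growth. TGI: concentration producing complete growth inhibition.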

What was measured:
Assay in all cases: NCI anticancer screen, dose series, 48 h
[1] = tested on: UACC-257 melanoma
[2] = tested on: MCF7 breast
[3] = tested on: TK-10 renal
[4] = tested on: NCI-H23 lung
[5] = tested on: A498 renal
[6] = tested on: OVCAR-5 ovarian
[7] = tested on: HL-60(TB) leukemia

Cc1cc(-c2[nH]c(C(=O)O)cc2I)on1 showed a TGI [1] of over 100 µM, a TGI [2] of over 100 µM and a TGI [3] of over 100 µM. For the same compound, the TGI [4] was over 100 µM, the TGI [5] was over 100 µM and the TGI [6] was over 100 µM.

O=c1/c(=C\c2ccccc2)sc2n1C(c1ccccc1)C1(O)CCCCC1N=2 (centres undefined) gave a TGI [1] of over 100 µM, a TGI [2] of over 100 µM and a TGI [3] of over 100 µM. It also gave a TGI [4] of over 100 µM, a TGI [5] of over 100 µM and a TGI [7] of over 100 µM. It also gave a TGI [6] of over 100 µM.

In the case of C=CCOc1ccccc1N=N/C(C#N)=N\Nc1ccccc1OCC=C, the TGI [1] is reported as over 100 µM, the TGI [2] is reported as over 100 µM and the TGI [3] is reported as over 100 µM. For the same compound, the TGI [4] was over 100 µM, the TGI [5] was over 100 µM and the TGI [7] was over 100 µM. The TGI [6] was over 100 µM.

O=C1C(F)=CC(COC(c2ccccc2)(c2ccccc2)c2ccccc2)OC1n1cc(F)c(=O)[nH]c1=O (centres undefined) was tested, and the TGI [1] was 4.72 µM, the TGI [2] was 4.96 µM and the TGI [3] was 3.43 µM. It also gave a TGI [4] of 3.91 µM, a TGI [5] of 24.4 µM and a TGI [7] of 10.2 µM. For the same compound, the TGI [6] was 4.61 µM.

FC(F)(F)c1ccccc1N1CCN(c2nc(-c3cccs3)nc3ccc(Br)cc23)CC1 showed a TGI [1] of over 100 µM, a TGI [2] of 17.5 µM and a TGI [3] of 97.3 µM. It also gave a TGI [4] of over 100 µM, a TGI [5] of over 100 µM and a TGI [7] of over 100 µM. It also gave a TGI [6] of over 100 µM.

Cc1ccc(OCC2OC(n3cnc4c(N(C)C)nc(Br)nc43)CC2Oc2ccc(C)cc2)cc1 (centres undefined) showed a TGI [1] of over 100 µM, a TGI [2] of over 100 µM and a TGI [3] of over 100 µM. It also gave a TGI [4] of over 100 µM, a TGI [5] of over 100 µM and a TGI [7] of over 100 µM. The TGI [6] was over 100 µM.

Compound c1ccc(-c2sc(-c3cccs3)cc2Cc2cccs2)cc1 has a TGI [1] of over 10 µM, a TGI [2] of over 10 µM and a TGI [3] of over 10 µM. It also gave a TGI [4] of over 10 µM and a TGI [7] of over 10 µM.

With CCOC(=O)Nc1c(C#N)[n+]([O-])c2cc(Cl)c(Cl)cc2[n+]1[O-] the TGI [1] was 36.1 µM, the TGI [2] was 41.3 µM and the TGI [3] was over 100 µM. For the same compound, the TGI [4] was 53.9 µM and the TGI [5] was 25 µM.

For NC(=O)c1nnc2cc(F)ccc2c1N, the TGI [1] was over 100 µM, the TGI [2] was over 100 µM and the TGI [3] was over 100 µM. For the same compound, the TGI [4] was over 100 µM, the TGI [5] was over 100 µM and the TGI [7] was over 100 µM. For the same compound, the TGI [6] was over 100 µM.

With NCCCn1c2ccccc2c2c3c(c4c(c21)CCC(O)CC4)C(=O)NC3=O (centres undefined) the TGI [1] was 29.7 µM, the TGI [2] was 3.58 µM and the TGI [3] was 14.7 µM. The TGI [4] was 14.3 µM, the TGI [5] was 22.8 µM and the TGI [7] was 22 µM. The TGI [6] was 15.5 µM.

For COc1cc2c(c(OC)c1OC)-c1ccc(SC)c(=O)cc1[C@@H](OC(C)=O)CC2, the TGI [1] was over 100 µM, the TGI [2] was over 100 µM and the TGI [3] was over 100 µM. For the same compound, the TGI [4] was 0.194 µM and the TGI [7] was 0.0242 µM.

CCC1C(c2cccc(OC)c2O)c2cc3c(cc2OC1N1CCCC1)OCO3 (centres undefined) showed a TGI [1] of 71.3 µM, a TGI [2] of over 100 µM and a TGI [3] of 82.1 µM. For the same compound, the TGI [4] was over 100 µM and the TGI [6] was 76.9 µM.

Work on CN(C(=O)Cc1ccc(Cl)c(Cl)c1)[C@H]1CCCC[C@@H]1[N+]1(C)CCCC1 yielded a TGI [1] of over 100 µM, a TGI [2] of over 100 µM and a TGI [3] of over 100 µM. The TGI [4] was over 100 µM, the TGI [5] was over 100 µM and the TGI [6] was over 100 µM.

With CC(C)C(C/C=C1\CC(CO)(COC(=O)c2ccccc2)OC1=O)C(C)C (centres undefined) the TGI [1] was 70.6 µM, the TGI [2] was 40.9 µM and the TGI [3] was 34.2 µM. For the same compound, the TGI [4] was 38 µM, the TGI [5] was 50.7 µM and the TGI [6] was 28 µM.

CCOC(=O)Oc1cc2c(c(OC)c1OC)-c1ccc(SC)c(=O)cc1C(NC(=O)C(F)(F)F)CC2 (centres undefined) showed a TGI [1] of 37.9 µM, a TGI [2] of 19.5 µM and a GI50 [4] of under 0.001 µM. It also gave a TGI [5] of 0.554 µM, a TGI [7] of 0.0148 µM and a GI50 [6] of 18.2 µM. It also gave a TGI [6] of over 100 µM.

O=[N+]([O-])/C(C(Cl)=C(Cl)Cl)=C1\NCCO1 showed a TGI [1] of over 100 µM, a TGI [2] of over 100 µM and a TGI [3] of over 100 µM. The TGI [4] was over 100 µM, the TGI [5] was over 100 µM and the TGI [7] was over 100 µM. It also gave a TGI [6] of over 100 µM.

N#Cc1c(SCc2ccccc2)nc(-c2ccccc2)[nH]c1=S was tested, and the TGI [1] was over 100 µM, the TGI [2] was 71 µM and the TGI [3] was over 100 µM. It also gave a TGI [4] of 47.7 µM, a TGI [5] of 63.8 µM and a TGI [7] of over 100 µM. It also gave a TGI [6] of 53.6 µM.

Compound C/C(=N/NC(=S)Nc1ccccc1Cl)c1cccc(/C(C)=N\NC(=S)Nc2ccccc2Cl)n1 has a TGI [1] of over 100 µM, a TGI [2] of 93.7 µM and a TGI [3] of over 100 µM. It also gave a TGI [4] of over 100 µM, a TGI [5] of over 100 µM and a TGI [7] of over 100 µM. It also gave a TGI [6] of over 100 µM.

Work on COc1cc(OC)c2c(O)c3c(cc2c1)CC(C)(C)CC3=O yielded a TGI [1] of over 100 µM, a TGI [2] of over 100 µM and a TGI [3] of over 100 µM. It also gave a TGI [4] of over 100 µM, a TGI [5] of over 100 µM and a TGI [7] of over 100 µM. It also gave a TGI [6] of over 100 µM.

In the case of CC(C)[C@@H]1CC[C@@H](C)C[C@H]1OC(=O)/C=C1/C2C=CC(O2)C1C(=O)O[C@@H]1C[C@H](C)CC[C@H]1C(C)C (some centres undefined), the TGI [1] is reported as over 100 µM, the TGI [2] is reported as over 100 µM and the TGI [3] is reported as over 100 µM. The TGI [4] was over 100 µM, the TGI [5] was over 100 µM and the TGI [7] was over 100 µM. The TGI [6] was over 100 µM.

For O=C1C(NCCc2ccc(O)c(O)c2)=CC(=O)c2ncccc21, the TGI [1] was 24.8 µM, the TGI [2] was 15.8 µM and the TGI [3] was over 71.6 µM. The TGI [4] was over 78.3 µM, the TGI [5] was 46.7 µM and the TGI [7] was 60.3 µM. It also gave a TGI [6] of 40.2 µM.

For C=CC1ON(Cc2ccccc2)CCc2cc(OC)c(OC)cc21 (centres undefined), the TGI [1] was over 100 µM, the TGI [2] was over 100 µM and the TGI [3] was over 100 µM. It also gave a TGI [4] of over 100 µM, a TGI [5] of 67.8 µM and a TGI [7] of 94.4 µM. For the same compound, the TGI [6] was over 100 µM.

With Clc1ccc(Cc2nc3ccc(CCN4CCN(c5ccccc5)CC4)cc3[nH]2)cc1 the TGI [1] was 18.8 µM, the TGI [2] was 37.6 µM and the TGI [3] was 27 µM. For the same compound, the TGI [4] was 32.5 µM, the TGI [5] was 32.5 µM and the TGI [7] was over 100 µM. The TGI [6] was 66.4 µM.

For COc1ccc2[nH]c(Cl)c(/C=C3/C(=O)Nc4cc(C)c(OC)cc43)c2c1, the TGI [1] was 23.6 µM, the TGI [2] was 14.4 µM and the TGI [3] was 21.3 µM. The TGI [4] was 19 µM, the TGI [5] was 19.2 µM and the TGI [7] was 6.08 µM. For the same compound, the TGI [6] was 27.2 µM.

CC(C)=CC(=O)O[C@H]1C(=O)O[C@@H]2C[C@H]3[C@H](C)C(=O)C(O[C@@H]4O[C@H](CO)[C@@H](O)[C@H](O)[C@H]4O)=C[C@]3(C)[C@H]3[C@@H](O)[C@H](O)[C@]4(C(=O)O)OC[C@]32[C@@H]14 showed a TGI [1] of over 100 µM, a GI50 [2] of 22.2 µM and a TGI [2] of 66.1 µM. It also gave a TGI [3] of over 100 µM, a TGI [4] of over 100 µM and a TGI [5] of over 100 µM. For the same compound, the GI50 [7] was 35.8 µM, the TGI [7] was over 100 µM and the TGI [6] was over 100 µM.

With Cc1c(C(=O)N2CCN(c3ccc([N+](=O)[O-])cc3)CC2)[n+](=O)c2cc(Cl)c(Cl)cc2n1[O-] the TGI [1] was over 100 µM, the TGI [2] was 33.2 µM and the TGI [3] was 39.3 µM. For the same compound, the TGI [4] was 32 µM, the TGI [5] was 23.1 µM and the TGI [7] was over 100 µM. The TGI [6] was 44 µM.

O=C(/C=C/c1cccc(Br)c1)c1cccs1 was tested, and the TGI [1] was 33 µM, the TGI [2] was 33 µM and the TGI [3] was 31.5 µM. It also gave a TGI [4] of 41.6 µM, a TGI [5] of 33.2 µM and a TGI [7] of 17.7 µM.
